In ChEMBL document CHEMBL4513135, “CO-ADD screening of IQOG CSIS (Spain) compounds”:
In brackets after ≈: the same amount, converted by molar mass.

Assays:
Acinetobacter baumannii = assay: microbe, parasite or virus in culture; conditions: ATCC 19606, 18 h, ASSAY_TEST Inhibition of Bacterial Growth, detection method Absorption (OD600), MEDIA CAMHB, plate type 384well, NBS, CORNING #3640
Description: Antibacterial activity against Acinetobacter baumannii ATCC 19606 (CO-ADD:GN_034); MIC in CAMBH media using NBS plates, by OD600

HEK293 = assay: cells; type: functional; conditions: Homo sapiens, ATCC CRL1573, HEK293; ASSAY_TEST Inhibition of Cell Viability; detection method Resazurin; Fluorescence (ex560/em590); MEDIA DMEM with 10% FBS; plate type 384well; TC; CORNING #3712; time 18 hr
Escherichia coli = assay: microbe, parasite or virus in culture; conditions: ATCC 25922, 18 h, ASSAY_TEST Inhibition of Bacterial Growth, detection method Absorption (OD600), MEDIA CAMHB, plate type 384well, NBS, CORNING #3640
Description: Antibacterial activity against Escherichia coli ATCC 25922 (CO-ADD:GN_001); MIC in CAMBH media using NBS plates, by OD(600)

Staphylococcus aureus = assay: microbe, parasite or virus in culture; conditions: ATCC 43300, 18 h, ASSAY_TEST Inhibition of Bacterial Growth, detection method Absorption (OD600), MEDIA CAMHB, plate type 384well, NBS, CORNING #3640
Description: Antibacterial activity against Staphylococcus aureus MRSA ATCC 43300 (CO-ADD:GP_020); MIC in CAMBH media, using NBS plates, by OD(600)

Pseudomonas aeruginosa = assay: microbe, parasite or virus in culture; conditions: ATCC 27853, 18 h, ASSAY_TEST Inhibition of Bacterial Growth, detection method Absorption (OD600), MEDIA CAMHB, plate type 384well, NBS, CORNING #3640
Description: Antibacterial activity against Pseudomonas aeruginosa ATCC 27853 (CO-ADD:GN_042); MIC in CAMBH media using NBS plates, by OD(600)

Candida albicans = assay: microbe, parasite or virus in culture; conditions: ATCC 90028, ASSAY_TEST Inhibition of Fungal Growth, detection method Absorption (OD530), plate type 384well, NBS, CORNING #3640
Description: Antifungal activity against Candida albicans ATCC 90028 (CO-ADD:FG_001); MIC in YNB media using NBS plates, by OD630

Klebsiella pneumoniae = assay: microbe, parasite or virus in culture; conditions: ATCC 700603, 18 h, ASSAY_TEST Inhibition of Bacterial Growth, detection method Absorption (OD600), MEDIA CAMHB, plate type 384well, NBS, CORNING #3640
Description: Antibacterial activity against Klebsiella pneumoniae MDR ATCC 70063 (CO-ADD:GN_003); MIC in CAMBH media using NBS plates, by OD(600)

Description for Cryptococcus neoformans: Antifungal activity against Cryptococcus neoformans H99 ATCC 208821 (CO-ADD:FG_002); MIC in YNB media using NBS plates, by Resazurin OD(600-570)

SMILES	MIC (Acinetobacter baumannii) [µg/mL]	CC50 (HEK293) [µg/mL]	MIC (Escherichia coli) [µg/mL]	MIC (Staphylococcus aureus) [µg/mL]	MIC (Pseudomonas aeruginosa) [µg/mL]	MIC (Candida albicans) [µg/mL]	MIC (Cryptococcus neoformans) [µg/mL]	MIC (Klebsiella pneumoniae) [µg/mL]
N#CC1=C(N)Oc2c(ccc3ccccc23)C1c1ccc([N+](=O)[O-])cc1 (configuration not stated)	> 32	0.259 (≈ 0.754 µM)	> 32	> 32	> 32	> 32	> 32	> 32
CCOC(=O)C1=C(C)OC(N)=C(C#N)C1c1ccc(Cl)cc1 (configuration not stated)	> 32	> 32	> 32	> 32	> 32	32 (≈ 100 µM)	> 32	> 32
C#CCNc1nc(NCCCCC2CCN(Cc3ccccc3)CC2)c(C#N)c(-c2ccccc2)c1C#N	> 32	3.46 (≈ 6.88 µM)	> 32	> 32	> 32	> 32	> 32	> 32
C#CCN(C)Cc1cc2cc(OCCCCC3CCN(Cc4ccccc4)CC3)ccc2n1C.Cl	> 32	> 32	> 32	> 32	> 32	> 32	> 32	> 32
Cl.Oc1ccc(CCl)c2cccnc12	> 32	2.26	> 32	4	32	16	1	> 32
Oc1ccc(CCl)c2cccnc12	> 32	5.81 (≈ 30 µM)	> 32	> 32	32 (≈ 165 µM)	> 32	16 (≈ 82.6 µM)	> 32
C#CCN(C)Cc1cc2cc(OCCCC3CCNCC3)ccc2n1C.C#CCN(C)Cc1cc2cc(OCCCC3CCNCC3)ccc2n1C.Cl.Cl.Cl.Cl.O	> 32	17.2	> 32	> 32	> 32	> 32	> 32	> 32
COc1ccc(OC)c2nc(Cl)c(C=O)cc12	> 32	> 32	> 32	> 32	> 32	> 32	> 32	> 32
Cn1ccnc1C1c2c(nc3c(c2N)CCCCC3)Oc2ccc3ccccc3c21 (configuration not stated)	> 32	> 32	> 32	> 32	> 32	> 32	> 32	> 32
CC1CC(=O)Nc2c1c(Br)nc1nc3c(c(N)c21)CCCC3 (configuration not stated)	> 32	4.01 (≈ 11.1 µM)	> 32	> 32	> 32	> 32	> 32	> 32
COc1nc(Cl)c(C#N)cc1C#N	> 32	0.56 (≈ 2.89 µM)	> 32	> 32	> 32	16 (≈ 82.6 µM)	> 32	> 32
C#CCN(C)c1nc(N)c(C#N)c(-c2ccccc2)c1C#N	> 32	> 32	> 32	> 32	> 32	> 32	> 32	> 32
Nc1c2c(nc3c1CC(c1ccccc1)C(=O)N3)CCCC2 (configuration not stated)	> 32	11.3 (≈ 38.5 µM)	> 32	> 32	> 32	> 32	> 32	> 32
N#Cc1c(NCCC2CCN(Cc3ccccc3)CC2)nc(NCCC2CCN(Cc3ccccc3)CC2)c(C#N)c1-c1ccccc1	> 32	> 32	> 32	> 32	> 32	> 32	> 32	> 32
